Measured values as given in US8834907B2, “Active nanocomposite materials and production method thereof” (Nanobiomatters, S.L., priority 2008, dated 2014).

System: Salmonella
Details: used in suspension
Procedure: To evaluate the antimicrobial capacity of PLA films, 600 mg of film were weighed, for both control without clay and for the sample with antimicrobial clay, and placed into 10 mL of sterile culture medium. They were stored at 4° C. for four weeks, prior to inoculation with Salmonella spp.

SMILES: O=[N+]([O-])[O-].[Ag+] [silver nitrate]
- minimum bactericidal concentration (reducing the population to zero): around 100 ppm
